Assay results from US4963569A, “L-654,040, antibacterial agent” (Merck & Co., Inc., priority 1989, dated 1990).
Entries after “also recorded” stand apart in the source; their conditions may differ.

How the values were obtained:
[1] = test system: Pasteurella multocida (4678); assay: In vivo efficacy in infected mice
Solubility in water = assay type: physicochemical; settings: solutions in water for dosing
[2] = test system: Bordetella bronchiseptica (3771); assay: In vivo efficacy in infected mice
E. coli DC2 4353 = assay: Agar dilution MIC, antagonist-free medium (Table II); settings: E. coli permeability mutant
Staph. aureus 2865 = assay: as above; settings: Staphylococcus aureus 2865, agar dilution
[3] = test system: Pasteurella multocida (4678); assay: Combined therapy with erythromycin in infected mice; settings: L-654,040 combined with erythromycin, intraperitoneal
[4] = 160 mg/kg×2 intraperitoneal, 0 and 6 hours after infection

With `C[C@H](CNC(=O)[C@H]1N=C(c2cccc(O)c2O)O[C@@H]1C)C(=O)N[C@@H]1CCCN(O)C1=O` [L-654,040, 2-(2,3-dihydroxyphenyl)-4,5-dihydro-N-[3-[(1-hydroxy-2-oxo-3(R)-piperidinyl)amino]-2(R)-methyl-3-oxopropyl]-5R-methyl-4S-oxazolecarboxamide] the “statistical significance of prolongation of survival” value ([1]; 160 mg/kg×2 intraperitoneal) was “statistically significant (0.025<p<0.05)”, the survival time [1, 4] was “prolongation of survival time was observed” and the “survival time (summary)” value ([1]; intraperitoneal) was “did prolong the survival time; also recorded: increases survival time”. The “statistical significance of prolonged survival (summary)” value ([1]; intraperitoneal, two Pasteurella tests) was “statistically significant at one level in two Pasteurella tests”, the “solubility (in words)” value (Solubility in water) was “limited solubility” and the survival time [2, 4] was “prolongation of survival time was observed”. For the same compound, the “survival time (summary)” value ([2]; intraperitoneal) was “did prolong the survival time”, the sensitivity of strain (E. coli DC2 4353; agar dilution) was “sensitive” and the “relative activity, acetyl derivative vs parent compound” value (E. coli DC2 4353; from MIC) was “equal activity”. For the same compound, the sensitivity of strain (Staph. aureus 2865) was “sensitive”, the “effectiveness of combined therapy vs erythromycin alone” value [3] was “slightly more effective than erythromycin alone” and the synergism with erythromycin [3] was “not to a degree considered to be synergistic”.
